Experimental data reported in PubChem BioAssay AID1963443 (Molecular Pharmacology Branch, DTP, NCI, 2024).

System: MDA-MB-231 complex spheroids, growth inhibition
Assay: Anticancer human tumor MDA-MB-231 cell line growth inhibition [Asc];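 also: spheroids exposed to compounds for 7 days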
Settings: for IC50: curve of first compound; for viability, T/C: stronger effect = lower value; active = viability on the fitted dose curve at most 10% of control; inactive = the rest
Summary of the method: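 Complex solid-tumor spheroids incorporating human endothelial and mesenchymal stem cells received single agents or combinations over half-log dilution ranges anchored to clinical Cmax.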

[1] = second compound 0.03 µM, first compound 0.00316 µM
[2] = second compound 0.03 µM, first compound 0.01 µM
[3] = second compound 0.03 µM, first compound 0.0316 µM
[4] = second compound 0.03 µM, first compound 0.1 µM
[5] = second compound 0.0949 µM, first compound 0.00316 µM
[6] = second compound 0.0949 µM, first compound 0.01 µM
[7] = second compound 0.0949 µM, first compound 0.0316 µM
[8] = second compound 0.0949 µM, first compound 0.1 µM
[9] = second compound 0.3 µM, first compound 0.00316 µM
[10] = second compound 0.3 µM, first compound 0.01 µM
[11] = second compound 0.3 µM, first compound 0.0316 µM
[12] = second compound 0.3 µM, first compound 0.1 µM
[13] = second compound 0.949 µM, first compound 0.00316 µM
[14] = second compound 0.949 µM, first compound 0.01 µM
[15] = second compound 0.949 µM, first compound 0.0316 µM
[16] = second compound 0.949 µM, first compound 0.1 µM
[17] = second compound 3 µM, first compound 0.00316 µM
[18] = second compound 3 µM, first compound 0.01 µM
[19] = second compound 3 µM, first compound 0.0316 µM
[20] = second compound 3 µM, first compound 0.1 µM

COc1c(OCCCN2CCOCC2)ccc2c3n(c(=NC(=O)c4cnc(N)nc4)nc12)CCN3 + CCN1C(C(=O)NC23CCC(C(=O)O)(CC2)CC3)C(c2cccc(Cl)c2F)C2(C(=O)Nc3cc(Cl)ccc32)C12CCCCC2
81.4 nM: IC50 (second compound 0.03 µM)
86.9 nM: IC50 (second compound 0.3 µM)
31.4 nM: IC50 (second compound 3 µM)
79.3 nM: IC50 (second compound 0.0949 µM)
inactive: viability, T/C [1] 87.7% | viability, T/C [2] 81.5% | viability, T/C [3] 61.5% | viability, T/C [4] 49.7% | viability, T/C (second compound 0.03 µM, first compound 0.316 µM) 34.6% | viability, T/C (second compound 0.03 µM, first compound 1 µM) 33.8% | viability, T/C [5] 102% | viability, T/C [6] 78.7% | viability, T/C [7] 63.4% | viability, T/C [8] 47.8% | viability, T/C (second compound 0.0949 µM, first compound 0.316 µM) 34.3% | viability, T/C (second compound 0.0949 µM, first compound 1 µM) 32.3% | viability, T/C [9] 99.3% | viability, T/C [10] 88.2% | viability, T/C [11] 65.2% | viability, T/C [12] 49.9% | viability, T/C (second compound 0.3 µM, first compound 0.316 µM) 34.7% | viability, T/C (second compound 0.3 µM, first compound 1 µM) 33.5% | viability, T/C [13] 100% | viability, T/C [14] 85.9% | viability, T/C [15] 66.4% | viability, T/C [16] 49% | viability, T/C (second compound 0.949 µM, first compound 0.316 µM) 37% | viability, T/C (second compound 0.949 µM, first compound 1 µM) 34.1% | viability, T/C [17] 83.3% | viability, T/C [18] 67.6% | viability, T/C [19] 50.1% | viability, T/C [20] 39.3% | viability, T/C (second compound 3 µM, first compound 0.316 µM) 31.2% | viability, T/C (second compound 3 µM, first compound 1 µM) 34.1%
90.8 nM: IC50 (second compound 0.949 µM)

NC(=O)C(=Cn1cnc(-c2cc(C(F)(F)F)cc(C(F)(F)F)c2)n1)c1cncnc1 + CCN1C(C(=O)NC23CCC(C(=O)O)(CC2)CC3)C(c2cccc(Cl)c2F)C2(C(=O)Nc3cc(Cl)ccc32)C12CCCCC2
67.4 nM: IC50 (second compound 3 µM)
84.7 nM: IC50 (second compound 0.3 µM)
inactive: viability, T/C (second compound 0.03 µM, first compound 0.000949 µM) 103% | viability, T/C (second compound 0.03 µM, first compound 0.003 µM) 92.8% | viability, T/C (second compound 0.03 µM, first compound 0.00949 µM) 82.4% | viability, T/C (second compound 0.03 µM, first compound 0.03 µM) 60% | viability, T/C (second compound 0.03 µM, first compound 0.0949 µM) 52.5% | viability, T/C (second compound 0.03 µM, first compound 0.3 µM) 23.6% | viability, T/C (second compound 0.0949 µM, first compound 0.000949 µM) 111% | viability, T/C (second compound 0.0949 µM, first compound 0.003 µM) 103% | viability, T/C (second compound 0.0949 µM, first compound 0.00949 µM) 90.4% | viability, T/C (second compound 0.0949 µM, first compound 0.03 µM) 62.6% | viability, T/C (second compound 0.0949 µM, first compound 0.0949 µM) 47.3% | viability, T/C (second compound 0.0949 µM, first compound 0.3 µM) 21.7% | viability, T/C (second compound 0.3 µM, first compound 0.000949 µM) 112% | viability, T/C (second compound 0.3 µM, first compound 0.003 µM) 102% | viability, T/C (second compound 0.3 µM, first compound 0.00949 µM) 87% | viability, T/C (second compound 0.3 µM, first compound 0.03 µM) 63.1% | viability, T/C (second compound 0.3 µM, first compound 0.0949 µM) 52.5% | viability, T/C (second compound 0.3 µM, first compound 0.3 µM) 25% | viability, T/C (second compound 0.949 µM, first compound 0.000949 µM) 117% | viability, T/C (second compound 0.949 µM, first compound 0.003 µM) 107% | viability, T/C (second compound 0.949 µM, first compound 0.00949 µM) 93.4% | viability, T/C (second compound 0.949 µM, first compound 0.03 µM) 66.9% | viability, T/C (second compound 0.949 µM, first compound 0.0949 µM) 50.4% | viability, T/C (second compound 0.949 µM, first compound 0.3 µM) 26.8% | viability, T/C (second compound 3 µM, first compound 0.000949 µM) 102% | viability, T/C (second compound 3 µM, first compound 0.003 µM) 94.2% | viability, T/C (second compound 3 µM, first compound 0.00949 µM) 79.4% | viability, T/C (second compound 3 µM, first compound 0.03 µM) 59.9% | viability, T/C (second compound 3 µM, first compound 0.0949 µM) 46.9% | viability, T/C (second compound 3 µM, first compound 0.3 µM) 31.6%
78.3 nM: IC50 (second compound 0.03 µM)
70.5 nM: IC50 (second compound 0.0949 µM)
84.5 nM: IC50 (second compound 0.949 µM)

NC1CCC(NC2CC2c2ccccc2)CC1 (stereo not given) + CCN1C(C(=O)NC23CCC(C(=O)O)(CC2)CC3)C(c2cccc(Cl)c2F)C2(C(=O)Nc3cc(Cl)ccc32)C12CCCCC2
inactive: viability, T/C (second compound 0.03 µM, first compound 0.000316 µM) 91.2% | viability, T/C (second compound 0.03 µM, first compound 0.001 µM) 94.5% | viability, T/C [1] 93.4% | viability, T/C [2] 95.2% | viability, T/C [3] 91.8% | viability, T/C [4] 96.2% | viability, T/C (second compound 0.0949 µM, first compound 0.000316 µM) 101% | viability, T/C (second compound 0.0949 µM, first compound 0.001 µM) 103% | viability, T/C [5] 101% | viability, T/C [6] 101% | viability, T/C [7] 100% | viability, T/C [8] 102% | viability, T/C (second compound 0.3 µM, first compound 0.000316 µM) 102% | viability, T/C (second compound 0.3 µM, first compound 0.001 µM) 104% | viability, T/C [9] 101% | viability, T/C [10] 102% | viability, T/C [11] 102% | viability, T/C [12] 105% | viability, T/C (second compound 0.949 µM, first compound 0.000316 µM) 105% | viability, T/C (second compound 0.949 µM, first compound 0.001 µM) 105% | viability, T/C [13] 105% | viability, T/C [14] 105% | viability, T/C [15] 104% | viability, T/C [16] 106% | viability, T/C (second compound 3 µM, first compound 0.000316 µM) 90% | viability, T/C (second compound 3 µM, first compound 0.001 µM) 91% | viability, T/C [17] 89.8% | viability, T/C [18] 88.2% | viability, T/C [19] 87.5% | viability, T/C [20] 89.2%
> 100 nM: IC50 (second compound 0.03 µM) | IC50 (second compound 0.0949 µM) | IC50 (second compound 0.3 µM) | IC50 (second compound 0.949 µM) | IC50 (second compound 3 µM)
